These results are taken from PMC4821887, “Identification of chemicals that mimic transcriptional changes associated with autism, brain aging and neurodegeneration” (Nature Communications, 2016).

Molecules are shown by their SMILES. “Also recorded” adds a separate entry of the source.

In data set [1] the test system is mitochondrial superoxide in cortical neurons. The experiment in a line: Mitochondrial superoxide detection (MitoSOX Red live-cell imaging). It is filed as cell-based, mouse. Particulars: 2 h treatment, MitoSOX, vincristine 500 µM in Supplementary Fig. 10b.
In data set [2] the test system is mouse cortical neuron cultures. The experiment in a line: Fluorescence immunocytochemistry for cellular composition (NeuN, Gfap, Iba1). Type of data set: cell-based. The following applies: 10 μM, 24 h, relative to vehicle.
The subject of data set [3] is mouse cortical neuron cultures. Particulars: mouse, 24 h, 10 µM.
The test system of data set [4] is purified tubulin. In words: Tubulin polymerization assay (cell-free, BK011P). The following applies: 37 °C, fluorescence over 60 min, equimolar doses. It is filed as biochemical.
The test system of data set [5] is mouse cortical neuron-enriched cultures. In words: RNA-seq transcriptional screen with hierarchical clustering and cluster membership. Type of data set: cell-based. The following applies: 24 h at non-toxic concentration; hierarchical clustering of 5,121 variably expressed genes. The method, then:
Cultures were treated with the non-cytotoxic dose of each chemical, by exchanging half of the original medium with chemicals at 2 × concentration in prewarmed feeding medium, on DIV 7 for 24 h in 12-well plates at a density of 5 × 10^5 cells per well. RNA was isolated using RNeasy plus mini kit (Cat. #74134, Qiagen). RNA yield and quality were determined using a Nanodrop 1000 Spectrophotometer (Thermo Scientific). Samples were further assessed for quality using either an Agilent Bioanalyzer 2100 or TapeStation 2200 to obtain a RIN. RIN values exceeding 7 were used for sequencing. RNA samples were used to generate and barcode complementary DNA libraries using the TruSeq RNA Library Preparation Kit at the UNC High Throughput Sequencing Facility. Pools of 24 multiplexed samples were sequenced per lane on an Illumina HiSeq 2500 using 50-bp paired-end reads.
RNA-seq reads were filtered using TagDust and aligned to the reference mouse genome (mm9) with TopHat using default parameters. Reads aligning to ribosomal RNA genes were removed. Transcript abundance was estimated by computing Reads per kilobase per million mapped reads (RPKM) using RefSeq gene models aggregated by gene symbol. For differential expression analyses, raw counts over RefSeq exons were used, and then were compared across samples using DESeq[62].
RPKMs for all RefSeq genes and all samples were filtered such that a given gene had >90% of samples with RPKM >0 and gene length exceeded 500 bp. RPKMs were then log10-transformed, quantile-normalized, median-centred, and the effects due to culture or sequencing batch were removed using a mixed model analysis of variance. This batch correction step was performed on individual experiments rather than chemical–vehicle ratios to reduce the effects due to variations in culture composition as well as batch-to-batch variations at the level of sequencing. Genes were then median-centred again, and filtered such that their s.d. exceeded 0.1. Chemical replicates were then combined using the median. Classes of chemicals were then discovered in two ways. First, we performed hierarchical clustering using average linkage and Pearson correlation distance measures. The boundaries of the discovered classes from clustering were set by computing pairwise Spearman correlations for all samples. A given cluster had to have at least three members with the minimum pairwise Spearman correlation coefficient exceeding 0.2, though cluster members often exceeded a correlation of 0.6 (Supplementary Fig. 5c,d). Seven chemical clusters were discovered, however one was removed due to failing to have a positive silhouette width, a metric of cluster robustness. These definitions enabled the three positive control topoisomerase inhibitors to form a cohesive group of chemicals with known structural and functional similarity (cluster 5). None of the culture or sequencing batches contributed to the formation of any one of the final six clusters (Supplementary Fig. 4).

The conditions of data set [6]: in vivo; cited from earlier work.

For `CSC1=N[C@@](C)(c2ccccc2)C(=O)N1Nc1ccccc1` [fenamidone], the “Mitochondrial superoxide (O2−) production” value in data set [1] is “dose dependent”; in data set [1] (listed as Fenamidone) it was “concentration-dependent increase”. The “Change in cellular composition (number of NeuN, Gfap or Iba1 positive cells)” value in data set [2] is given as “did not; also recorded: no significant change”. The “% Dead cells (vehicle subtracted)” value in data set [3] turned out to be 1.638%. In data set [4], the “Effect on tubulin polymerization” value was “did not impair”. In data set [5], the “Chemical cluster assigned by gene expression” value is reported as “cluster 2”. The “Neurotoxicity in a set of assays used by regulatory agencies” value in data set [6] is on record as “No evidence of neurotoxicity”.
